Source: PubChem BioAssay (NCI)
“And” between values parts separate entries of the source, which are not always exact repeats. Identical values can stand only once.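 All cell lines were grown in 96-well plates and treated with compound for 48 hours. GI50 marks 50% less growth. At the TGI there is no net growth.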

Columns and labels:
Assay in all cases: NCI tumour cell line growth inhibition, 48 h
A549 NSCLC = system: A549 NSCLC
SK-MEL-2 melanoma = system: SK-MEL-2 melanoma
HCT-116 colon = system: HCT-116 colon
SK-MEL-5 melanoma = system: SK-MEL-5 melanoma
SN12C renal = system: SN12C renal
UACC-257 melanoma = system: UACC-257 melanoma
UACC-62 melanoma = system: UACC-62 melanoma
MCF7 breast = system: MCF7 breast
OVCAR-4 ovarian = system: OVCAR-4 ovarian
IGROV1 ovarian = system: IGROV1 ovarian

Row | SMILES | GI50 (A549 NSCLC) [µM] | TGI (A549 NSCLC) [µM] | GI50 (SK-MEL-2 melanoma) | TGI (SK-MEL-2 melanoma) | GI50 (HCT-116 colon) | TGI (HCT-116 colon) | GI50 (SK-MEL-5 melanoma) [µM] | TGI (SK-MEL-5 melanoma) [µM] | GI50 (SN12C renal) | TGI (SN12C renal) | GI50 (UACC-257 melanoma) | TGI (UACC-257 melanoma) | GI50 (UACC-62 melanoma) | TGI (UACC-62 melanoma) | GI50 (MCF7 breast) | TGI (MCF7 breast) [µM] | GI50 (OVCAR-4 ovarian) | TGI (OVCAR-4 ovarian) | GI50 (IGROV1 ovarian) [µM] | TGI (IGROV1 ovarian) [µM]
1 | CCc1ccc(/C(C#N)=C/C=C/c2ccccc2)cc1 | 2.62 | > 100 | 4.92 µM | > 100 µM | 1.93 µM | > 100 µM | 1.09 | 26.2 | 10.6 µM | > 100 µM | > 83.5 µM | > 100 µM | 3.48 µM | > 100 µM | 1.14 µM | > 100 | 18.4 µM | > 100 µM | 7.55 | > 100
2 | O=C(/C=C\c1cccc([N+](=O)[O-])c1)c1ccccc1 | 21 | 68.2 | 3.91 µM | 17.9 µM | 1.72 µM | 5.07 µM | 6.97 | 20.2 | 3.71 µM | 14.1 µM | 4.85 µM | 12.4 µM | 7.93 µM | 22 µM | 1.81 µM | 9.71 | 3.38 µM | 12.6 µM | 2.62 | > 28.6
3 | Oc1c(Cl)cc(C(c2cc(Cl)c(O)c(Cl)c2)C(c2cc(Cl)c(O)c(Cl)c2)c2cc(Cl)c(O)c(Cl)c2)cc1Cl | 3.73 | 36.4 | 2.92 µM | 7.33 µM | 2.36 µM | 10.8 µM | 2.89 | 14.8 | 2.41 µM | 8.99 µM | 7.75 µM | 23.9 µM | 3 µM | 12.5 µM | 3.18 µM | 15.8 | 7.11 µM | 94.4 µM | 5.29 | 16.8
4 | CN(C)c1cc2c(Nc3ccc4nc(Cc5ccccc5)[nH]c4c3)ncnc2cn1 | 11.8 | > 25 | > 16.3 µM | > 25 µM | 13.1 µM | > 25 µM | 8.99 | > 16 | > 16.1 µM | > 25 µM | > 15.3 µM | > 25 µM | > 18.3 µM | > 25 µM | > 15.3 µM | > 25 | > 20.4 µM | > 25 µM | 9.21 | > 25
5 | O=C(c1ccc(F)c(F)c1Nc1ccc(I)cc1F)N1CC(O)([C@H]2CCCCN2)C1 | 2.37 | 18 | 0.135 µM | 0.702 µM | 0.649 µM | 11.7 µM | 0.668 | 6.06 | 3.96 µM | 19.7 µM | 0.08 µM | 0.472 µM | 0.097 µM | 2.92 µM | 6.56 µM | 21.3 | 3.81 µM | 17.7 µM | 1.43 | 13.9
6 | O=C1C(CN(Cc2ccccc2)Cc2ccccc2)CCCC1CN(Cc1ccccc1)Cc1ccccc1 (configuration not stated) | – | > 100 | 19.6 µM and > 69.9 µM | 36 µM and > 100 µM | 14.6 µM and 70.3 µM | 21.5 µM and > 100 µM | – | > 100 | 13.1 µM and > 79 µM | 25.8 µM and > 100 µM | 27.9 µM and > 100 µM | 49.1 µM and > 100 µM | 29.2 µM and > 100 µM | 45.2 µM and > 100 µM | 20.3 µM and > 100 µM | > 100 | 20 µM and > 79.8 µM | 36.6 µM and > 100 µM | – | > 100
